Patent US7342011B2, “Rifamycin analogs and uses thereof” (priority 2003, dated 2008)
In brackets after ≈: the same amount, converted by molar mass.

tested on: E. coli; assay: MIC assay, E. coli; assay type: cell-based

| Compound | MIC (μg/mL) E. coli |
| --- | --- |
| 25-O-deacetyl-5′-[(8aR)octahydropyrrolo[1,2-a]pyrazin-2-yl]benzthiazinorifamycin [Compound 78] | 4 µg/mL |
| COC1C=COC2(C)Oc3c(C)c(O)c4c(=O)c(c5oc6cc(N7CC8C(C7)C8NC(=O)OCC[Si](C)(C)C)cc(O)c6nc-5c4c3C2=O)NC(=O)C(C)=CC=CC(C)C(O)C(C)C(O)C(C)C(OC(C)=O)C1C [Compound 2, 3′-hydroxy-5′-[6-(2-trimethylsilyl)ethylcarbamyl-(1R,5S)-3-azabicyclo[3.1.0]hex-3-yl]benzoxazinorifamycin] | >8 µg/mL |
| COC1C=COC2(C)Oc3c(C)c(O)c4c(=O)c(c5oc6cc(N7CC8C(N)C8C7)cc(O)c6nc-5c4c3C2=O)NC(=O)C(C)=CC=CC(C)C(O)C(C)C(O)C(C)C(OC(C)=O)C1C [Compound 4, 3′-hydroxy-5′-[6-amino-(1R,5S)-3-azabicyclo[3.1.0]hex-3-yl]benzoxazinorifamycin] | >8 µg/mL |
| CO[C@H]1/C=C/O[C@@]2(C)Oc3c(C)c(O)c4c(=O)c(c5oc6cc(N7C[C@@H]8CCCN[C@@H]8C7)cc(O)c6nc-5c4c3C2=O)NC(=O)/C(C)=C\C=C\[C@H](C)[C@H](O)[C@@H](C)[C@@H](O)[C@@H](C)[C@H](OC(C)=O)[C@@H]1C [Compound 5, 3′-hydroxy-5′-[(4aS,7aS)-octahydro-6H-pyrrolo[3,4-b]pyridin-6-yl]benzoxazinorifamycin] | 8 µg/mL (≈ 8.65 µM) |
| CO[C@H]1/C=C/O[C@@]2(C)Oc3c(C)c(O)c4c(=O)c(c5oc6cc(N7C[C@@H]8CCCN[C@@H]8C7)cc(O)c6nc-5c4c3C2=O)NC(=O)/C(C)=C\C=C\[C@H](C)[C@H](O)[C@@H](C)[C@@H](O)[C@@H](C)[C@H](O)[C@@H]1C [Compound 7, 25-O-deacetyl-3′-hydroxy-5′-[(4aS,7aS)-octahydro-6H-pyrrolo[3,4-b]pyridin-6-yl]benzoxazinorifamycin] | >8 µg/mL |
| CO[C@H]1/C=C/O[C@@]2(C)Oc3c(C)c(O)c4c(=O)c(c5oc6cc(N7CCC(N8CCOCC8)CC7)cc(O)c6nc-5c4c3C2=O)NC(=O)/C(C)=C\C=C\[C@H](C)[C@H](O)[C@@H](C)[C@@H](O)[C@@H](C)[C@H](OC(C)=O)[C@@H]1C [Compound 9, 3′-hydroxy-5′-(4-morpholinyl-1-piperidinyl)benzoxazinorifamycin] | 8 µg/mL (≈ 8.26 µM) |
| CO[C@H]1/C=C/O[C@@]2(C)Oc3c(C)c(O)c4c(=O)c(c5oc6cc(N7CC8CCC(C7)N8)cc(O)c6nc-5c4c3C2=O)NC(=O)/C(C)=C\C=C\[C@H](C)[C@H](O)[C@@H](C)[C@@H](O)[C@@H](C)[C@H](OC(C)=O)[C@@H]1C [Compound 10, 3′-hydroxy-5′-(3,8-diazabicyclo[3.2.1]octan-3-yl)benzoxazinorifamycin] | >8 µg/mL |
| CO[C@H]1/C=C/O[C@@]2(C)Oc3c(C)c(O)c4c(=O)c(c5oc6cc(N7CCC(N8CCOCC8)CC7)cc(O)c6nc-5c4c3C2=O)NC(=O)/C(C)=C\C=C\[C@H](C)[C@H](O)[C@@H](C)[C@@H](O)[C@@H](C)[C@H](O)[C@@H]1C [Compound 11, 25-O-deacetyl-3′-hydroxy-5′-(4-morpholinyl-1-piperidinyl)benzoxazinorifamycin] | 4 µg/mL (≈ 4.31 µM) |
| CO[C@H]1/C=C/O[C@@]2(C)Oc3c(C)c(O)c4c(=O)c(c5oc6cc(N7C[C@H]8CCCN[C@H]8C7)cc(O)c6nc-5c4c3C2=O)NC(=O)/C(C)=C\C=C\[C@H](C)[C@H](O)[C@@H](C)[C@@H](O)[C@@H](C)[C@H](OC(C)=O)[C@@H]1C [Compound 12, 3′-hydroxy-5′-[(4aR,7aR)-octahydro-6H-pyrrolo[3,4-b]pyridin-6-yl]benzoxazinorifamycin] | 8 µg/mL (≈ 8.65 µM) |
| CO[C@H]1/C=C/O[C@@]2(C)Oc3c(C)c(O)c4c(=O)c(c5oc6cc(N7CCC(NC(=O)OCC(C)C)CC7)cc(O)c6nc-5c4c3C2=O)NC(=O)/C(C)=C\C=C\[C@H](C)[C@H](O)[C@@H](C)[C@@H](O)[C@@H](C)[C@H](OC(C)=O)[C@@H]1C [Compound 13] | 4 µg/mL (≈ 4 µM) |
| CO[C@H]1/C=C/O[C@@]2(C)Oc3c(C)c(O)c4c(=O)c(c5oc6cc(N7C[C@H]8CCCN[C@H]8C7)cc(O)c6nc-5c4c3C2=O)NC(=O)/C(C)=C\C=C\[C@H](C)[C@H](O)[C@@H](C)[C@@H](O)[C@@H](C)[C@H](O)[C@@H]1C [Compound 15, 25-O-deacetyl-3′-hydroxy-5′-[(4aR,7aR)-octahydro-6H-pyrrolo[3,4-b]pyridin-6-yl]benzoxazinorifamycin] | >8 µg/mL |
| CO[C@H]1/C=C/O[C@@]2(C)Oc3c(C)c(O)c4c(=O)c(c5oc6cc(N7CC8CCC(C7)N8)cc(O)c6nc-5c4c3C2=O)NC(=O)/C(C)=C\C=C\[C@H](C)[C@H](O)[C@@H](C)[C@@H](O)[C@@H](C)[C@H](O)[C@@H]1C [Compound 16, 25-O-deacetyl-3′-hydroxy-5′-(3,8-diazabicyclo[3.2.1]octan-3-yl)benzoxazinorifamycin] | 4 µg/mL (≈ 4.6 µM) |
| CO[C@H]1/C=C/O[C@@]2(C)Oc3c(C)c(O)c4c(=O)c(c5oc6cc(N7CCC(N(C)C)CC7)cc(O)c6nc-5c4c3C2=O)NC(=O)/C(C)=C\C=C\[C@H](C)[C@H](O)[C@@H](C)[C@@H](O)[C@@H](C)[C@H](OC(C)=O)[C@@H]1C [Compound 17, 3′-hydroxy-5′-(4-N,N-dimethylamino-1-piperidinyl)benzoxazinorifamycin] | 8 µg/mL (≈ 8.63 µM) |
| CO[C@H]1/C=C/O[C@@]2(C)Oc3c(C)c(O)c4c(=O)c(c5oc6cc(N7CCC(N(C)C)CC7)cc(O)c6nc-5c4c3C2=O)NC(=O)/C(C)=C\C=C\[C@H](C)[C@H](O)[C@@H](C)[C@@H](O)[C@@H](C)[C@H](O)[C@@H]1C [Compound 18, 25-O-deacetyl-3′-hydroxy-5′-(4-N,N dimethylamino-1-piperidinyl)benzoxazinorifamycin] | 4 µg/mL (≈ 4.52 µM) |
| COC1C=COC2(C)Oc3c(C)c(O)c4c(=O)c(c5oc6cc(N7CC8C(N)C8C7)cc(O)c6nc-5c4c3C2=O)NC(=O)C(C)=CC=CC(C)C(O)C(C)C(O)C(C)C(O)C1C [Compound 20, 25-O-deacetyl-3′-hydroxy-5′-[6-amino-(1R,5S)-3-azabicyclo[3.1.0]hex-3-yl]benzoxazinorifamycin] | >8 µg/mL |
| CCOC(=O)NC1C2CN(c3cc(O)c4nc5c6c7c8c(C)c(O)c6c(=O)c(c-5oc4c3)NC(=O)C(C)=CC=CC(C)C(O)C(C)C(O)C(C)C(OC(C)=O)C(C)C(OC)C=COC(C)(O8)C7=O)CC21 (stereo not shown) [Compound 21] | 4 µg/mL (≈ 4.13 µM) |
| CO[C@H]1/C=C/O[C@@]2(C)Oc3c(C)c(O)c4c(=O)c(c5oc6cc(N7CCC(NC(=O)OC(C)C)CC7)cc(O)c6nc-5c4c3C2=O)NC(=O)/C(C)=C\C=C\[C@H](C)[C@H](O)[C@@H](C)[C@@H](O)[C@@H](C)[C@H](OC(C)=O)[C@@H]1C [Compound 22] | >8 µg/mL |
| CO[C@H]1/C=C/O[C@@]2(C)Oc3c(C)c(O)c4c(=O)c(c5oc6cc(N7CCC(NS(=O)(=O)C(F)(F)F)CC7)cc(O)c6nc-5c4c3C2=O)NC(=O)/C(C)=C\C=C\[C@H](C)[C@H](O)[C@@H](C)[C@@H](O)[C@@H](C)[C@H](OC(C)=O)[C@@H]1C [Compound 23] | >8 µg/mL |
| CCCC(=O)NC1CCN(c2cc(O)c3nc4c5c6c7c(C)c(O)c5c(=O)c(c-4oc3c2)NC(=O)/C(C)=C\C=C\[C@H](C)[C@H](O)[C@@H](C)[C@@H](O)[C@@H](C)[C@H](OC(C)=O)[C@H](C)[C@@H](OC)/C=C/O[C@@](C)(O7)C6=O)CC1 [Compound 24, 3′-hydroxy-5′-[4-butanamide-1-piperidinyl]benzoxazinorifamycin] | >8 µg/mL |
| CO[C@H]1/C=C/O[C@@]2(C)Oc3c(C)c(O)c4c(=O)c(c5oc6cc(N7CCC(NS(C)(=O)=O)CC7)cc(O)c6nc-5c4c3C2=O)NC(=O)/C(C)=C\C=C\[C@H](C)[C@H](O)[C@@H](C)[C@@H](O)[C@@H](C)[C@H](OC(C)=O)[C@@H]1C [Compound 25] | >8 µg/mL |
| CCCNC(=O)NC1CCN(c2cc(O)c3nc4c5c6c7c(C)c(O)c5c(=O)c(c-4oc3c2)NC(=O)/C(C)=C\C=C\[C@H](C)[C@H](O)[C@@H](C)[C@@H](O)[C@@H](C)[C@H](OC(C)=O)[C@H](C)[C@@H](OC)/C=C/O[C@@](C)(O7)C6=O)CC1 [Compound 28, 3′-hydroxy-5′-[4-propyluryl-1-piperidinyl]benzoxazinorifamycin] | >8 µg/mL |
| COC(=O)NC1CCN(c2cc(O)c3nc4c5c6c7c(C)c(O)c5c(=O)c(c-4oc3c2)NC(=O)/C(C)=C\C=C\[C@H](C)[C@H](O)[C@@H](C)[C@@H](O)[C@@H](C)[C@H](O)[C@H](C)[C@@H](OC)/C=C/O[C@@](C)(O7)C6=O)CC1 [Compound 30, 25-O-deacetyl-3′-hydroxy-5′-[4-methylcarbamyl-1-piperidinyl]benzoxazinorifamycin] | >8 µg/mL |
| CCOC(=O)NC1CCN(c2ccc3nc4c5c6c7c(C)c(O)c5c(=O)c(c-4n(C)c3c2)NC(=O)/C(C)=C\C=C\[C@H](C)[C@H](O)[C@@H](C)[C@@H](O)[C@@H](C)[C@H](O)[C@H](C)[C@@H](OC)/C=C/O[C@@](C)(O7)C6=O)CC1 [Compound 31] | 8 µg/mL (≈ 8.64 µM) |
| CO[C@H]1/C=C/O[C@@]2(C)Oc3c(C)c(O)c4c(=O)c(c5oc6cc(N7CCC(N)CC7)cc(O)c6nc-5c4c3C2=O)NC(=O)/C(C)=C\C=C\[C@H](C)[C@H](O)[C@@H](C)[C@@H](O)[C@@H](C)[C@H](OC(C)=O)[C@@H]1C [Compound 33, 3′-hydroxy-5′-[4-amino-1-piperidinyl]benzoxazinorifamycin] | >8 µg/mL |
| CCNC(=O)NC1CCN(c2cc(O)c3nc4c5c6c7c(C)c(O)c5c(=O)c(c-4oc3c2)NC(=O)/C(C)=C\C=C\[C@H](C)[C@H](O)[C@@H](C)[C@@H](O)[C@@H](C)[C@H](OC(C)=O)[C@H](C)[C@@H](OC)/C=C/O[C@@](C)(O7)C6=O)CC1 [Compound 34, 3′-hydroxy-5′-[4-ethyluryl-1-piperidinyl]benzoxazinorifamycin] | 8 µg/mL (≈ 8.25 µM) |
